For data set [1], the target named is T1, partially purified ALR2 from rat lenses (Rattus norvegicus, UniProt P07943).
T1 construct: Supernatant containing the partially purified ALR2 enzyme was used directly or stored at −80 °C for less than 24 h; from tissue; host or cells: eye lenses of Fischer-344 rats (homogenate supernatant after 40% ammonium sulfate precipitation)
Kind of data set: ALR2 enzymatic assay (NADPH consumption, DL-glyceraldehyde substrate). It counts as biochemical. As to conditions: for fold activity loss compared to lead compound IIc: IC50 ratio versus IIc, rat ALR2 enzyme; for fold less strong ARI than sorbinil and epalrestat: IC50 ratio versus the reference drugs sorbinil and epalrestat; for inhibition at 10 µM: cut-off concentration of 10 μM; for IC50: partially purified ALR2 from rat lenses, 0.1–10 μM concentrations. As for the experimental part: The ALR2 enzyme was isolated from rat lenses of the Fischer-344 series. Laboratory animal handling and experiment conduct was carried out in accordance with the Law on the Protection of Laboratory Animals (Hellenic Republic) and was declared to the Veterinary Authority of the Republic of Greece. The animal study protocol was approved by the Ethics Committee of the Prefecture of Central Macedonia (protocol code 270079/2500) for studies involving animals.
Eye lenses were quickly removed from Fischer-344 rats following euthanasia. The enzyme was partially purified by a well-established and previously reported procedure. The lenses were removed from euthanized rats and were quickly stored at −80 °C until used. Great care was taken to clean the lenses mechanically from other ocular tissues and debris. The lenses were homogenized in 5 vol of cold ultrapure water (0.5 mL per lens), and the homogenate was centrifuged at 10,000 × rpm at 0–4 °C for 15 min. The supernatant was then collected, precipitated with a saturated solution of ammonium sulfate (40% saturation), and centrifuged at 10,000 × rpm at 0–4 °C for 15 min. Supernatant containing the partially purified ALR2 enzyme was used directly or stored at −80 °C for less than 24 h.
ALR2 activity was assayed spectrophotometrically by determining NADPH consumption (ε340nm = 6300 M^−1 × cm^−1). The examined compounds were dissolved in DMSO (1% final concentration) at appropriate final concentrations (0.1–10 μM). The effects of the compounds on enzyme activity were determined by including the inhibitor in the reaction mixture at required concentrations. At the same concentration, the inhibitor was included in the reference blank. The reference blank contained all the following reagents except the substrate to correct NADPH oxidation, which is not associated with the substrate’s reduction. Briefly, 2.4 mL of 66.7 mM phosphate Na^+/K^+ assay buffer (pH = 6.2), 100 μL of 3.2 mM NADPH solution in assay buffer, 300 μL of enzyme supernatant, 90 μL of ultrapure water, and 10 μL of solution of tested inhibitors in DMSO in appropriate concentration or pure DMSO (served as control) were mixed in that order in a glass vial. Subsequently, 1 mL of that mixture was transferred to each 1.5 mL-UV quartz cuvette (10 mm path length), and 100 μL of assay buffer (reference blank) or 110 mM DL-glyceraldehyde solution (10 mM final concentration) in assay buffer was added to initiate the enzyme reaction. ALR2 activity was assayed by monitoring NADPH consumption (0.1 mM final concentration) at 340 nm for 5 min after incubating reaction mixtures for 1 min at 30 °C. […] IC50 values were determined by least-squares regression analysis of the semi-logarithmic dose–inhibition curves. Each curve was generated using at least five compounds’ concentrations, causing inhibition from at least 15–80% in at least three triplicate repetitions.

Details of data set [2]: method as in Mylari et al. [49]. As to conditions: ref Mylari et al. [49], cited from earlier work.
Data set [3] concerns diabetic rats. Further details: method as in Mylari et al. [49]. As to conditions: lens, retina and sciatic nerve of diabetic rats; ref Mylari et al. [49]; cited from earlier work.
Data set [4] has as its system Caco-2. More on the design: method as in Mylari et al. [49]. As to conditions: ref Mylari et al. [49]; cited from earlier work.
Data set [5] has as its system ALR2. More on the design: method as in Mylari et al. [49]. As to conditions: preclinical studies; ref Mylari et al. [49]; cited from earlier work.

Some results are limits rather than exact numbers.

A word on the inhibition: it is the percentage by which the read-out fell short of the control. A low value points to a weak effect. The term IC50 denotes the concentration that inhibits the measured activity by half. For `O=S(=O)(c1ccc(O)c(F)c1)n1ccc2cc(Br)ccc21` [Compound 3c, 4-((5-bromo-1H-indol-1-yl)sulfonyl)-2-fluorophenol], in data set [1], the “fold activity loss compared to lead compound IIc” value is given as 1.9 fold; the “fold less strong ARI than sorbinil and epalrestat” value is 7.4 fold; the inhibition at 10 µM was 80.6 ± 2%; the IC50 came out at 1.85 ± 0.15 µM.
The like results for `O=S(=O)(c1ccc(O)c(F)c1)n1ccc2cc(Cl)ccc21` [Compound 3b, 4-((5-chloro-1H-indol-1-yl)sulfonyl)-2-fluorophenol] were, in that order, 2.3 fold, 9 fold, 77.6 ± 1.3% and 2.22 ± 0.28 µM.
`O=S(=O)(c1ccc(O)c(F)c1)n1ccc2cc(F)ccc21` [Compound 3a, 4-((5-fluoro-1H-indol-1-yl)sulfonyl)-2-fluorophenol]: in data set [1], the “fold activity loss compared to lead compound IIc” value was 3.1 fold; the “fold less strong ARI than sorbinil and epalrestat” value amounted to 12 fold; testing at 10 µM gave an inhibition of 74.5 ± 2.6%; the IC50 is 3.02 ± 0.45 µM.
In the case of `Cc1c(S(=O)(=O)c2ccc(=O)[nH]n2)oc2ccc(Cl)cc12` [CP-744809, 6-(5-chloro-3-methylbenzofuran-2-sulfonyl)-2H-pyridazin-3-one], the oral bioavailability in data set [2] (at 2 mg/kg) was 98%. The plasma half-life in data set [2] (preclinical studies) was 23 to 29 h. Also, in data set [3], the “in vivo normalization of elevated sorbitol and fructose” value is “remarkable efficiency in vivo in normalizing elevated sorbitol and fructose”. Moreover, the Caco-2 transcellular permeability in data set [4] is reported as > 10^−5 cm/s. Further, the IC50 in data set [5] is 0.00084 µM.
Take `Oc1ccc(-n2ccc3cc(Cl)ccc32)cc1F` [Compound 3d, 4-(5-chloro-1H-indol-1-yl)-2-fluorophenol]: in data set [1], the inhibition at 10 µM turned out to be 43.7 ± 1.3% and the IC50 was more than 10 µM. In data set [1] (lower dose of 1 μM), the “ALR2 inhibitory activity at 1 μM” value was “completely inactive”.

The values are drawn from publication PMC12286057, “An Investigation of 5-Halogenated N-Indolylsulfonyl-2-fluorophenol Derivatives as Aldose Reductase Inhibitors” (Medicines, 2025).
